The values that follow are results of earlier work, collected in patent US20260102408A1, “CONTRACEPTIVE COMPOSITIONS WITH REDUCED ADVERSE EFFECTS” (ESTETRA SRL, priority 2020, published 2026).

Each structure is given as a SMILES string.

For this data set the following is noted: single oral dose; Blode H et al. Study 1; Caucasian; geometric mean.

Regarding `C[C@]12CCC(=O)C=C1[C@@H]1C[C@@H]1[C@H]1[C@@H]3[C@@H]4C[C@@H]4[C@@]4(CCC(=O)O4)[C@@]3(C)CC[C@@H]12` [DRSP 3 mg, drospirenone], the “AUCinf of DRSP” value was 506 ng·h/mL and the “Cmax of DRSP” value is recorded as 33.9 ng/mL.
